Measured values from US20220339124A1 (CADILA HEALTHCARE LIMITED, priority 2019, published 2022).
Where a name gives a salt, the structure may show the parent alone.

Key:
[1] = humans, cited from earlier work
[2] = endocyclic and exocyclic double bonds to epoxides; tertiary amine to N-oxide; cited from earlier work
in vivo [3] = conditions: male, Wistar, rat, plasma
Description: A serial blood sampling was performed from each animal. The blood samples were collected at 0.00 (pre-dose), 0.08, 0.25, 0.5, 1, 2, 4, 6, 8, 24 hrs. […] Pharmacokinetic parameters were calculated using the non-compartmental analysis (NCA) module of Phoenix-WinNonlin® software version 6.4.

in vivo [4] = assay: in vivo
Description: A serial blood sampling was performed from each animal. The blood samples were collected at 0.00 (pre-dose), 0.083, 0.25, 0.5, 1, 2, 4, 6, 8, 24 hrs. […] Pharmacokinetic parameters were calculated using the non-compartmental analysis (NCA) module of Phoenix-WinNonlin® software version 6.4.

in vivo [5] = conditions: male, Wistar, rat, inhaled or intranasal, mean ± SD, N=4; for half-life: T½
[6] = intranasal, 0.05, 0.1 and 0.2 mg/kg, rats
[7] = inhaled or intranasal, 0.02 mg/kg
[8] = New Zealand white, rabbit, plasma, inhaled or intranasal, 0.011 mg/kg
[9] = male, Wistar, rat, inhaled or intranasal, 0.4 mg/kg
[10] = male, Wistar, rat, po, 1.05 mg/kg
[11] = male, beagle, dog, plasma, inhaled or intranasal, 0.26 mg/kg
[12] = male, beagle, dog, plasma, po, 0.51 mg/kg
[13] = in vivo, planned 0.2 mg/kg (actual 0.14 mg/kg)
[14] = plasma, planned 0.05 mg/kg (actual 0.03 mg/kg)
[15] = plasma, planned 0.1 mg/kg (actual 0.07 mg/kg)

CN(C)CCC=C1c2ccccc2C=Cc2ccccc21 [Cyclobenzaprine hydrochloride, cyclobenzaprine hydrochloride]
dose excreted in the urine as unchanged drug ([1]; study with 14C-labelled drug): about 1%

CN(C)CCC=C1c2ccccc2C=Cc2ccccc21 [cyclobenzaprine, 3-(5H-Dibenzo[a,d]cyclohepten-5-ylidene)-N,N-dimethyl-1-propanamine]
plasma clearance [1]: 0.7 L/min | effective half-life ([1]; range 8-37 hours, n=18): 18 h | stability towards oxidation [2]: very unstable | AUC(0-inf) (in vivo [3]; [7]): 2.59 ng·h/mL | AUC(0-t) (in vivo [3]; [7]): 2.32 ng·h/mL | Cmax (in vivo [3]; [7]): 2.83 ng/mL | Tmax (in vivo [3]; [7]): 0.083 h | half-life (in vivo [3]; [7]): 1.07 h | AUC(0-inf) (in vivo [3]; po, 0.885 mg/kg): 3.26 ng·h/mL | AUC(0-t) (in vivo [3]; po, 0.885 mg/kg): 2.54 ng·h/mL | Cmax (in vivo [3]; po, 0.885 mg/kg): 1.2 ng/mL | Tmax (in vivo [3]; po, 0.885 mg/kg): 1 h | half-life (in vivo [3]; po, 0.885 mg/kg): 2.61 h | AUC(0-inf) (in vivo [4]; [8]): 0.92 ng·h/mL | AUC(0-t) (in vivo [4]; [8]): 0.52 ng·h/mL | Cmax (in vivo [4]; [8]): 0.56 ng/mL | MRT inf (in vivo [4]; [8]): 2.43 h | MRT last (in vivo [4]; [8]): 0.87 h | Vd/F (in vivo [4]; [8]): 28.6 L/kg | Cl—F—pred (in vivo [4]; intranasal, 0.011 mg/kg): 199.56 mL/min/kg | HL—Lambda—z (in vivo [4]; intranasal, 0.011 mg/kg): 1.65 h | DNAUC (AUC normalized at 1 mg/kg dose) (in vivo [4]; intranasal, 0.26 mg/kg): 385.92 | DNAUC (AUC normalized at 1 mg/kg dose) (in vivo [4]; male, Wistar, rat, inhaled or intranasal): 130.85 | AUC(0-inf) (in vivo [4]; [9]): 52.3 ± 12.8 ng·h/mL | AUC(0-t) (in vivo [4]; [9]): 51.2 ± 12.8 ng·h/mL | Cmax (in vivo [4]; [9]): 31.3 ± 10.1 ng/mL | half-life (in vivo [4]; [9]): 2.79 ± 2.35 h | DNAUC (AUC normalized at 1 mg/kg dose) (in vivo [4]; male, Wistar, rat, po): 3.11 | AUC(0-inf) (in vivo [4]; [10]): 3.27 ± 0.42 ng·h/mL | AUC(0-t) (in vivo [4]; [10]): 2.98 ± 0.42 ng·h/mL | Cmax (in vivo [4]; [10]): 1.74 ± 0.95 ng/mL | half-life (in vivo [4]; [10]): 1.43 ± 0.33 h | AUC(0-inf) (in vivo [4]; [11]): 103 ± 26.2 ng·h/mL | AUC(0-t) (in vivo [4]; [11]): 100 ± 25.9 ng·h/mL | Cmax (in vivo [4]; [11]): 62.3 ± 13.8 ng/mL | Tmax (in vivo [4]; [11]): 0.083 h | half-life (in vivo [4]; [11]): 6.09 ± 2.27 h | AUC(0-inf) (in vivo [4]; [12]): 7.58 ± 5.64 ng·h/mL | AUC(0-t) (in vivo [4]; [12]): 7.03 ± 5.65 ng·h/mL | Cmax (in vivo [4]; [12]): 1.61 ± 1.21 ng/mL | Tmax (in vivo [4]; [12]): 1.5 h | half-life (in vivo [4]; [12]): 2.03 ± 0.64 h | Plasma concentrations (in vivo [4]; oral, 0.442 mg/kg, n=4, rabbits): below the limit of quantification | DNAUC (AUC normalized at 1 mg/kg dose) (in vivo [4]; oral, 0.51 mg/kg): 13.52 | Tmax (in vivo [4]; rat, inhaled or intranasal, 0.4 mg/kg): 0.083 h | Tmax (in vivo [4]; rat, po, 1.05 mg/kg): 0.5 (0.25-1.0) Hour | AUC(0-t) (in vivo [5]; [13]): 22.4 ± 10.1 ng·h/mL | half-life (in vivo [5]; in vivo, planned 0.05 mg/kg (actual 0.03 mg/kg)): 1.9 ± 0.3 h | half-life (in vivo [5]; in vivo, planned 0.1 mg/kg (actual 0.07 mg/kg)): 1.6 ± 0.2 h | half-life (in vivo [5]; [13]): 2.2 ± 0.3 h | AUC(0-t) (in vivo [5]; [14]): 4.8 ± 1.4 ng·h/mL | AUC(0-t) (in vivo [5]; [15]): 10.6 ± 3 ng·h/mL | Cmax (in vivo [5]; [14]): 4.6 ± 1.7 ng/mL | Cmax (in vivo [5]; [15]): 16.4 ± 11.6 ng/mL | Cmax (in vivo [5]; plasma, planned 0.2 mg/kg (actual 0.14 mg/kg)): 27.6 ± 26.4 ng/mL | Bioavailability versus dose [6]: Dose dependent linear bioavailability
